Columns and labels:
[1] = test system: cdk4 kinase activity in Hep 3B cells; test: Immunoprecipitation and kinase activity assay; format: cell-based, human; settings: 60 μM TB, 15 h; p53 partial deletion
Description: (§1) (Ko U, and […]. Genes & Development 1996; 10(9): 1054-72; Levine AJ., Cell 1997;88(3):323-31.). […] To further test this hypothesis, we examined the TB effects on the levels of p21/Cip1, p27/Kip1 and p53 protein, and the cdk4 kinase activity in three human cancer cell lines (COLO 205, HT 29 and Hep 3B). […] Antisense or sense p53 was added to COLO 205 at a final concentration of 20 μM at 16 h before the cell was challenged with 10% FCS and 60 μM TB treatment for additional 15 h. […] As previously described (Wu X, et. al., Oncogene 1996;12(7):1397-403.), the TB-treated cells were lysed in Rb lysis buffer, and immunoprecipitated with anti-cdk4 antibody (2 μg). The protein complexes in beads were washed twice with Rb lysis buffer and then once with Rb kinase assay buffer. The level of phosphorylated of Rb (for pRb), histone Hi (for cdk2) and glutathione s-transferase-Rb fusion protein (for cdk4) were measured by incubating the beads with 40 μl of hot Rb kinase solution [0.25 μl (2 μg) of Rb-GST fusion protein, 0.5 μl of (γ-^32P) ATP, 0.5 μl of 0.1 mM ATP and 38.75 μl of Rb kinase buffer] at 37° C. for 30 min, and then stopped by boiling the samples in SDS sample buffer for 5 min. The samples were analyzed by 12% SDS-PAGE, and the gel was then dried and subjected to autoradiography.

[2] = test system: cdk4 kinase activity in HT 29 cells; test: Immunoprecipitation and kinase activity assay; format: cell-based, human; settings: 60 μM TB, 15 h; p53 His273 mutant
Description: as §1

[3] = test system: cdk4 kinase activity in COLO 205 cells; test: Immunoprecipitation and kinase activity assay; format: cell-based, human; settings: 60 μM TB, 15 h after release from quiescence; p53 wild type
Description: as §1

[4] = cited from earlier work
[5] = cited from earlier work; remark: listed apart in the source
[6] = test system: COLO 205; test: Determination of cell growth curve (cell counting); format: cell-based, human
Description: The effect of TB on the growth of various human cancer cells […]. In FIG. 1, (A) COLO205, (B) HT29, (C) HepG2, (D) Hep3B, (E) HL60, and (F) normal human fibroblast cells were treated with various concentrations of TB (30 to 120 μM). Media with or without TB were renewed daily until cell counting. Three samples were analyzed in each group. Values represent mean±S.E. The cells were cultured for 5 days with or without TB (30-120 μM), and then the cells were harvested and counted. […] The COLO 205 cells were released from quiescence by incubation in culture media supplemented with 10% FCS and 0.05% DMSO without or with 90 μM TB for 24 h. After 24 h treatment with TB, the cells were washed twice with PBS, replaced with fresh 10% FCS without DMSO or TB. […] The cultured cell numbers in DMSO- and TB-treated group were counted every day. Three samples were analyzed in each group, and values represent the mean±S.E. Human colon cancer, hepatoma, leukemia, and human normal fibroblast cells at a density of 1×10^4 were plated in 35-mm Petri dishes. TB was added at the indicated doses in 0.05% dimethyl-sulfoxide (DMSO). For control specimens, the same volume of the 0.05% DMSO without TB was added. Media with and without TB were changed daily until cell counting

[7] = test system: COLO 205 cells; test: DNA fragmentation (DNA ladder) by electrophoresis of genomic DNA; format: cell-based, human
Description: Genomic DNAs extracted from TB-treated COLO 205 were examined by gel electrophoresis. […] In FIG. 9, the part of (A) refers to potentiation of ND-induced apoptosis by TB. […] DNA fragmentation was examined at 24 h after drug treatment. In the lanes 2 and 8, cells received mock treatment as controls. The symbols of “M” (in lanes 1 and 7), refer to “DNA size marker.” (B) average tumor volume of DMSO-treated vs. drug-treated nude mice (n=5). (C) tumor weight, (D) animal body weight, and (E) tumor/body weight ratio were measured at the end of experiment. Five samples were analyzed in each group, and values represent the mean±S.E. Comparisons were subjected to ANOVA followed by Fisher's least significant difference test. Significance was accepted at p<0.05. *TB-, ND-, and TB+ND-treated group different from DMSO-treated group. TB+ND-treated group different from TB- or ND-treated group.

[8] = test system: HL 60 cells; test: Flow cytometry (FACS) cell cycle analysis; format: cell-based, human; settings: TB 10-150 μM, 15 h
[9] = test system: p53 binding to p21/Cip1 promoter DNA, nuclear extracts of COLO 205 cells; test: Electrophoretic mobility shift assay (EMSA); format: cell-based, human; settings: 60 μM TB
Description: Antisense or sense p53 was added to COLO 205 at a final concentration of 20 μM at 16 h before the cell was challenged with 10% FCS and 60 μM TB treatment for additional 15 h. […] The radio labeled DNA (4 ng, 100,000 cpm) was incubated with nuclear extract in 15 μl of binding buffer (10 mM Tris-HCl, pH 8.0, 1 mM EDTA, 10% glycerol, 200 mM NaCl, and 1 μg probe DNA) on ice for 5 min. The samples were electrophoresed in a 5% polyacrylamide gel, dried on Whatman 3M paper, and then exposed to Fuji x-ray films at -70° C.

[10] = test system: p53 and p21/Cip1 protein in COLO 205 tumor; test: Western blot of COLO 205 tumor; format: in vivo, nude mouse; settings: tumor isolated at 6 weeks after TB treatment
Description: Western blot analyses show the levels of p53 and p21/Cip1 protein in COLO 205 tumor (C). COLO 205 tumors were isolated for protein extraction at 6 weeks after DMSO or TB treatment. Membranes were also probed with anti-GAPDH antibody to correct for differences in protein loading. […] Western blot analysis was performed as previously described (Chen R J, et. al., Toxicology & Applied Pharmacology 2000;169(2):132-41; Lee W S, et. al., Circulation Research 1998;82(8):845-51.). Immunodetection was carried by probing with proper dilutions of specific antibodies at room temperature for 2 h. Anti-p21/Cip1, anti-p27/Kip1, anti-p53, anti-GAPDH monoclonal antibodies (Santa Cruz, Inc. CA); anti-cyclin B1, D1, and D3, anti-cdk2 and cdk4, and PCNA monclonal antibodies (Transduction Laboratories, Lexington, Ky.) were used at a concentration of 1:1,000 dilution. Anti-cyclin A and E polyclonal antibodies (Transduction, San Diego, Calif.) were used at a concentration of 1:250 dilution. […] In each experiment, membranes were also probed with anti-GAPDH antibody to correct for differences in protein loading.

[11] = test system: p53, p21/Cip1 and p27/Kip1 protein in COLO 205 tumor tissues; test: Immunocytochemical staining of COLO 205 tumor tissues; format: in vivo, nude mouse; settings: TB-treated vs DMSO-treated nude mice
[12] = daily oral 250 mg TB for 4 weeks, human study

CN(C/C=C/C#CC(C)(C)C)Cc1cccc2ccccc12 [TB, 1-Naphthalenemethanamine, N-(6,6-dimethyl-2-hepten-4-ynyl)-N-methyl-, (E)-]
assayable cdk4 kinase activity [1]: slight decrease
assayable cdk4 kinase activity [2]: slight decrease
assayable cdk4 kinase activity [3]: strong decrease
tissue accumulation ([4]; adipose tissues, keratin-rich tissues (dermis, epidermis, nail) and other organ tissues): extensively accumulates
tissue concentrations relative to plasma ([4]; as early as 1 day after stop of medication): exceeded that of plasma
fraction of TB absorbed ([5]; after an oral dose (250 mg)): approximately 70%
maximum plasma concentrations ([5]; after an oral dose (250 mg)): 0.5 to 1.5 µg/mL
time to reach maximum plasma concentrations ([5]; after an oral dose (250 mg)): ≤ 2 h
plasma level of TB [5, 12]: 1700 ± 770 ng/mL
plasma level of TB (molar) [5, 12]: 5.83 µM
duration of inhibition of cell proliferation after removal of TB ([6]; 90 μM TB for 24 h, then removed): at least 7 days
reversibility of TB-induced inhibition of cell proliferation ([6]; 90 μM TB for 24 h, then washed and replaced with fresh 10% FCS): not reversed by removal of TB
cell number ([6]; TB 30-120 μM, 5 days, media renewed daily, dose-dependent): decreased cell number
cell growth at TB 60 μM ([6]; TB concentration increased to 60 μM, 5 days): cell growth arrest or cell death
DNA ladder ([7]; 10 μM TB alone, 24 h): does not induce DNA ladder
effect of TB on ND-induced apoptosis ([7]; co-treatment with TB 10 μM and ND): enhanced the ND-induced apoptosis
apoptosis (presence of sub G1) [8]: dose-dependently caused the occurrence of apoptosis
G0/G1 arrest ([8]; p53 null cells): did not induce G0/G1 arrest
binding between p53 protein and p53 consensus binding site in p21/Cip1 promoter DNA probe [9]: increased the binding
contents of p53 and p21/Cip1 in tumor [10]: increased
p53, p21/Cip1 and p27/Kip1 immunoreactivities in tumor tissues [11]: strongly induced

— US20050032904A1, “Composition and use of allylamine derivatives” (priority 2003, published 2005)
